Data: ChEMBL document CHEMBL5370683, “Peptide-to-Small Molecule: Discovery of Non-Covalent, Active-Site Inhibitors of β-Herpesvirus Proteases” (ACS Med Chem Lett, 2023)
One block for each compound: values may come before it. Peptide text beside a SMILES is read from it.

Legend:
Human betaherpesvirus 5 = assay: Antiviral activity against HCMV infected in HFF cells assessed as reduction in viral replication; format: functional, organism-based; conditions: Human betaherpesvirus 5, HFF
[1] = Cytotoxicity against HFF cells assessed as inhibition in cell viability incubated for 5 days by luminescence based analysis; format: toxicity; conditions: human, time 5 day
[2] = Inhibition of N-terminal 6 His-tagged HHV6 protease (2 to 230 residues) expressed in Escherichia coli BL21 cells using 5FAM-KPSILNASLTPETVKK as peptide substrate incubated for 3 hrs by fluorescence based analysis; design: species or system Human betaherpesvirus 6
[3] = Inhibition of amino terminal GST tagged HCMV protease (1 to 256 residues) expressed in Escherichia coli BL21 (DE3) cells using 5-carboxyfluorescein [FAM]-RGVVNASSRLAK as peptide substrate incubated for 3 hrs by fluorescence based analysis; design: species or system Human betaherpesvirus 5
[4] = Apparent permeability across apical to basolateral side in LLC-PK1 cells at 2 uM incubated for 2 hrs by LC/MS/MS method; format: ADME, cell-based, Sus scrofa; conditions: pig
[5] = Inhibition of amino terminal GST tagged HCMV protease T3A mutant (1 to 256 residues) expressed in Escherichia coli BL21 (DE3) cells using 5-carboxyfluorescein [FAM]-RGVVNASSRLAK as peptide substrate incubated for 3 hrs by fluorescence based analysis; design: species or system Human betaherpesvirus 5
[6] = Inhibition of N-terminal 6 His-tagged HHV6 protease T3A mutant (2 to 230 residues) expressed in Escherichia coli BL21 cells using 5FAM-KPSILNASLTPETVKK as peptide substrate incubated for 3 hrs by fluorescence based analysis; design: species or system Human betaherpesvirus 6
[7] = Inhibition of amino terminal GST tagged HCMV protease H5A mutant (1 to 256 residues) expressed in Escherichia coli BL21 (DE3) cells using 5-carboxyfluorescein [FAM]-RGVVNASSRLAK as peptide substrate incubated for 3 hrs by fluorescence based analysis; design: species or system Human betaherpesvirus 5
[8] = Inhibition of N-terminal 6 His-tagged HHV6 protease H5A mutant (2 to 230 residues) expressed in Escherichia coli BL21 cells using 5FAM-KPSILNASLTPETVKK as peptide substrate incubated for 3 hrs by fluorescence based analysis; design: species or system Human betaherpesvirus 6
[9] = Inhibition of N-terminal 6 His-tagged HHV6 protease Y6A mutant (2 to 230 residues) expressed in Escherichia coli BL21 cells using 5FAM-KPSILNASLTPETVKK as peptide substrate incubated for 3 hrs by fluorescence based analysis; design: species or system Human betaherpesvirus 6
[10] = Inhibition of amino terminal GST tagged HCMV protease Y6A mutant (1 to 256 residues) expressed in Escherichia coli BL21 (DE3) cells using 5-carboxyfluorescein [FAM]-RGVVNASSRLAK as peptide substrate incubated for 3 hrs by fluorescence based analysis; design: species or system Human betaherpesvirus 5
[11] = Inhibition of amino terminal GST tagged HCMV protease W7A mutant (1 to 256 residues) expressed in Escherichia coli BL21 (DE3) cells using 5-carboxyfluorescein [FAM]-RGVVNASSRLAK as peptide substrate incubated for 3 hrs by fluorescence based analysis; design: species or system Human betaherpesvirus 5
[12] = Inhibition of N-terminal 6 His-tagged HHV6 protease W7A mutant (2 to 230 residues) expressed in Escherichia coli BL21 cells using 5FAM-KPSILNASLTPETVKK as peptide substrate incubated for 3 hrs by fluorescence based analysis; design: species or system Human betaherpesvirus 6
[13] = Inhibition of N-terminal 6 His-tagged HHV6 protease V8A mutant (2 to 230 residues) expressed in Escherichia coli BL21 cells using 5FAM-KPSILNASLTPETVKK as peptide substrate incubated for 3 hrs by fluorescence based analysis; design: species or system Human betaherpesvirus 6
[14] = Inhibition of amino terminal GST tagged HCMV protease V8A mutant (1 to 256 residues) expressed in Escherichia coli BL21 (DE3) cells using 5-carboxyfluorescein [FAM]-RGVVNASSRLAK as peptide substrate incubated for 3 hrs by fluorescence based analysis; design: species or system Human betaherpesvirus 5
[15] = Inhibition of N-terminal 6 His-tagged HHV6 protease R9A mutant (2 to 230 residues) expressed in Escherichia coli BL21 cells using 5FAM-KPSILNASLTPETVKK as peptide substrate incubated for 3 hrs by fluorescence based analysis; design: species or system Human betaherpesvirus 6
[16] = Inhibition of amino terminal GST tagged HCMV protease R9A mutant (1 to 256 residues) expressed in Escherichia coli BL21 (DE3) cells using 5-carboxyfluorescein [FAM]-RGVVNASSRLAK as peptide substrate incubated for 3 hrs by fluorescence based analysis; design: species or system Human betaherpesvirus 5
[17] = Inhibition of amino terminal GST tagged HCMV protease F10A mutant (1 to 256 residues) expressed in Escherichia coli BL21 (DE3) cells using 5-carboxyfluorescein [FAM]-RGVVNASSRLAK as peptide substrate incubated for 3 hrs by fluorescence based analysis; design: species or system Human betaherpesvirus 5
[18] = Inhibition of N-terminal 6 His-tagged HHV6 protease F10A mutant (2 to 230 residues) expressed in Escherichia coli BL21 cells using 5FAM-KPSILNASLTPETVKK as peptide substrate incubated for 3 hrs by fluorescence based analysis; design: species or system Human betaherpesvirus 6
[19] = Inhibition of amino terminal GST tagged HCMV protease L11A mutant (1 to 256 residues) expressed in Escherichia coli BL21 (DE3) cells using 5-carboxyfluorescein [FAM]-RGVVNASSRLAK as peptide substrate incubated for 3 hrs by fluorescence based analysis; design: species or system Human betaherpesvirus 5
[20] = Inhibition of N-terminal 6 His-tagged HHV6 protease L11A mutant (2 to 230 residues) expressed in Escherichia coli BL21 cells using 5FAM-KPSILNASLTPETVKK as peptide substrate incubated for 3 hrs by fluorescence based analysis; design: species or system Human betaherpesvirus 6
[21] = Inhibition of amino terminal GST tagged HCMV protease P12A mutant (1 to 256 residues) expressed in Escherichia coli BL21 (DE3) cells using 5-carboxyfluorescein [FAM]-RGVVNASSRLAK as peptide substrate incubated for 3 hrs by fluorescence based analysis; design: species or system Human betaherpesvirus 5
[22] = Inhibition of N-terminal 6 His-tagged HHV6 protease P12A mutant (2 to 230 residues) expressed in Escherichia coli BL21 cells using 5FAM-KPSILNASLTPETVKK as peptide substrate incubated for 3 hrs by fluorescence based analysis; design: species or system Human betaherpesvirus 6

EC50 (Human betaherpesvirus 5): 60000 nM
IC50 [2]: 330 nM
IC50 [3]: 2500 nM
Papp A→B at 2 h, 2 µM [4]: 1.3 ×10⁻⁶ cm/s
SMILES: Cc1ccc([C@@H](c2cn(C3CCCC3)nc2-c2ccccc2C)n2cccc(N3C[C@H](C(=O)NC45CCC(CC4)NC5=O)N(C)C3=O)c2=O)cc1
CC50 at 120 h [1]: 51000 nM

SMILES: CC[C@H](C)[C@H](NC(=O)[C@H](Cc1ccccc1)NC(C)=O)C(=O)N[C@@H](C)C(=O)NCC(=O)N[C@@H](Cc1c[nH]cn1)C(=O)N[C@@H](Cc1ccc(O)cc1)C(=O)N[C@@H](Cc1c[nH]c2ccccc12)C(=O)N[C@H](C(=O)N[C@@H](CCCNC(=N)N)C(=O)N[C@@H](Cc1ccccc1)C(=O)N[C@@H](CC(C)C)C(=O)N1CCC[C@H]1C(=O)N[C@@H](CS)C(=O)NCC(N)=O)C(C)C (Ac-FIAGHYWVRFLPCG-NH2)
IC50 [5]: 157 nM
IC50 [6]: 100 nM

SMILES: CC[C@H](C)[C@H](NC(=O)[C@H](Cc1ccccc1)NC(C)=O)C(=O)N[C@H](C(=O)NCC(=O)N[C@@H](C)C(=O)N[C@@H](Cc1ccc(O)cc1)C(=O)N[C@@H](Cc1c[nH]c2ccccc12)C(=O)N[C@H](C(=O)N[C@@H](CCCNC(=N)N)C(=O)N[C@@H](Cc1ccccc1)C(=O)N[C@@H](CC(C)C)C(=O)N1CCC[C@H]1C(=O)N[C@@H](CS)C(=O)NCC(N)=O)C(C)C)[C@@H](C)O (Ac-FITGAYWVRFLPCG-NH2)
IC50 [7]: 109 nM
IC50 [8]: 86 nM

SMILES: CC[C@H](C)[C@H](NC(=O)[C@H](Cc1ccccc1)NC(C)=O)C(=O)N[C@H](C(=O)NCC(=O)N[C@@H](Cc1c[nH]cn1)C(=O)N[C@@H](C)C(=O)N[C@@H](Cc1c[nH]c2ccccc12)C(=O)N[C@H](C(=O)N[C@@H](CCCNC(=N)N)C(=O)N[C@@H](Cc1ccccc1)C(=O)N[C@@H](CC(C)C)C(=O)N1CCC[C@H]1C(=O)N[C@@H](CS)C(=O)NCC(N)=O)C(C)C)[C@@H](C)O (Ac-FITGHAWVRFLPCG-NH2)
IC50 [9]: 85 nM
IC50 [10]: 689 nM

SMILES: CC[C@H](C)[C@H](NC(=O)[C@H](Cc1ccccc1)NC(C)=O)C(=O)N[C@H](C(=O)NCC(=O)N[C@@H](Cc1c[nH]cn1)C(=O)N[C@@H](Cc1ccc(O)cc1)C(=O)N[C@@H](C)C(=O)N[C@H](C(=O)N[C@@H](CCCNC(=N)N)C(=O)N[C@@H](Cc1ccccc1)C(=O)N[C@@H](CC(C)C)C(=O)N1CCC[C@H]1C(=O)N[C@@H](CS)C(=O)NCC(N)=O)C(C)C)[C@@H](C)O (Ac-FITGHYAVRFLPCG-NH2)
IC50 [11]: 811 nM
IC50 [12]: 250 nM

SMILES: CC[C@H](C)[C@H](NC(=O)[C@H](Cc1ccccc1)NC(C)=O)C(=O)N[C@H](C(=O)NCC(=O)N[C@@H](Cc1c[nH]cn1)C(=O)N[C@@H](Cc1ccc(O)cc1)C(=O)N[C@@H](Cc1c[nH]c2ccccc12)C(=O)N[C@@H](C)C(=O)N[C@@H](CCCNC(=N)N)C(=O)N[C@@H](Cc1ccccc1)C(=O)N[C@@H](CC(C)C)C(=O)N1CCC[C@H]1C(=O)N[C@@H](CS)C(=O)NCC(N)=O)[C@@H](C)O (Ac-FITGHYWARFLPCG-NH2)
IC50 [13]: < 76 nM
IC50 [14]: 96 nM

SMILES: CC[C@H](C)[C@H](NC(=O)[C@H](Cc1ccccc1)NC(C)=O)C(=O)N[C@H](C(=O)NCC(=O)N[C@@H](Cc1c[nH]cn1)C(=O)N[C@@H](Cc1ccc(O)cc1)C(=O)N[C@@H](Cc1c[nH]c2ccccc12)C(=O)N[C@H](C(=O)N[C@@H](C)C(=O)N[C@@H](Cc1ccccc1)C(=O)N[C@@H](CC(C)C)C(=O)N1CCC[C@H]1C(=O)N[C@@H](CS)C(=O)NCC(N)=O)C(C)C)[C@@H](C)O (Ac-FITGHYWVAFLPCG-NH2)
IC50 [15]: < 76 nM
IC50 [16]: 92 nM

SMILES: CC[C@H](C)[C@H](NC(=O)[C@H](Cc1ccccc1)NC(C)=O)C(=O)N[C@H](C(=O)NCC(=O)N[C@@H](Cc1c[nH]cn1)C(=O)N[C@@H](Cc1ccc(O)cc1)C(=O)N[C@@H](Cc1c[nH]c2ccccc12)C(=O)N[C@H](C(=O)N[C@@H](CCCNC(=N)N)C(=O)N[C@@H](C)C(=O)N[C@@H](CC(C)C)C(=O)N1CCC[C@H]1C(=O)N[C@@H](CS)C(=O)NCC(N)=O)C(C)C)[C@@H](C)O (Ac-FITGHYWVRALPCG-NH2)
IC50 [17]: < 76 nM
IC50 [18]: < 76 nM

SMILES: CC[C@H](C)[C@H](NC(=O)[C@H](Cc1ccccc1)NC(C)=O)C(=O)N[C@H](C(=O)NCC(=O)N[C@@H](Cc1c[nH]cn1)C(=O)N[C@@H](Cc1ccc(O)cc1)C(=O)N[C@@H](Cc1c[nH]c2ccccc12)C(=O)N[C@H](C(=O)N[C@@H](CCCNC(=N)N)C(=O)N[C@@H](Cc1ccccc1)C(=O)N[C@@H](C)C(=O)N1CCC[C@H]1C(=O)N[C@@H](CS)C(=O)NCC(N)=O)C(C)C)[C@@H](C)O (Ac-FITGHYWVRFAPCG-NH2)
IC50 [19]: < 76 nM
IC50 [20]: < 76 nM

SMILES: CC[C@H](C)[C@H](NC(=O)[C@H](Cc1ccccc1)NC(C)=O)C(=O)N[C@H](C(=O)NCC(=O)N[C@@H](Cc1c[nH]cn1)C(=O)N[C@@H](Cc1ccc(O)cc1)C(=O)N[C@@H](Cc1c[nH]c2ccccc12)C(=O)N[C@H](C(=O)N[C@@H](CCCNC(=N)N)C(=O)N[C@@H](Cc1ccccc1)C(=O)N[C@@H](CC(C)C)C(=O)N[C@@H](C)C(=O)N[C@@H](CS)C(=O)NCC(N)=O)C(C)C)[C@@H](C)O (Ac-FITGHYWVRFLACG-NH2)
IC50 [21]: < 76 nM
IC50 [22]: < 76 nM
